Test results reported in patent publication US8318723B2, “Pyrazine compounds, their use and methods of preparation” (Boehringer Ingelheim International GmbH, priority 2006, dated 2012).

Target: PIM-2 (Homo sapiens, UniProt Q9P1W9)
Assay: PIM-2 assay, IC50 determination (luciferase-luciferin ATP depletion, 10-point dose response)
Assay type: biochemical
Conditions: 10 nM PIM-2, 1 μM ATP, 50 μM peptide substrate, 15 minutes at room temperature
Protocol: The screen utilizes the Zymark Allegro UHTS system to dispense reagents, buffers and test compounds. To Greiner 384-well, white Lumitrac-200 plates, 20 μL/well of 20 nM PIM-2 (10 nM final assay concentration) in assay buffer (25 mM HEPES, pH 7.5, 10 mM MgCl2, 50 mM KCl, 0.2% CHAPS, 100 μM Na3VO4, 0.2% BSA and 200 μM TCEP) is delivered, followed by 10 μL/well of test compounds (3 μg/mL final assay concentration in 1% DMSO) that were previously dissolved in DMSO and diluted in assay buffer. A 10 μL volume of a solution containing 4 μM ATP (1 μM final assay concentration) and 20 μM peptide substrate (Biotin-[sequence], 5 μM final assay concentration) diluted in assay buffer is added to each well and the contents of the wells are mixed. […] Positive control wells receive 10 μL/well of assay buffer in lieu of compound. The kinase reaction mixture is incubated for 60 minutes at room temperature. A 40 μL/well of ATP detection reagent is then added to the reaction mixture. The assay plates are read on an Analyst (Molecular Devices) in luminescence mode following additional 15 minutes of incubation at room temperature. Luminescence signals are converted to percent of control (POC) values using the formula: POC=(BCTRL−Signal)÷(BCTRL−PCTRL), where Signal is the test well signal, BCTRL is the average of background control well signals on the plate and PCTRL is the average of positive control well signals on the plate.
The IC50 of the compounds is determined with a modification of the above method. The assay is performed in 96-well Lumitrac-200, white, plates. Test compounds dissolved in DMSO (5 mg/mL) are serially diluted 1 to 3 in DMSO for 10-point dose response. The DMSO dilutions are further diluted in the assay buffer and 15 μL of this dilution is added to the assay plate, for a final starting assay concentration of 5 μg/mL in 1% DMSO. A 15 μL volume of 40 nM PIM-2 followed by 30 μL of a solution containing 2 μM ATP and 100 μM peptide substrate, all diluted in assay buffer, is added to each well for a final assay concentration of 10 nM PIM-2, 1 μM ATP, and 50 μM peptide substrate. The kinase reaction mixture is incubated for 15 minutes at room temperature. A 60 μL/well of ATP detection reagent is then added to the reaction mixture. The assay plates are read on an Analyst (Molecular Devices) in luminescence mode following additional 15 minutes of incubation at room temperature. IC50 is determined by fitting the POC of the dose response data to a 4-parameter logistic equation.

PIM-2, sequence (Q9P1W9 whole entry): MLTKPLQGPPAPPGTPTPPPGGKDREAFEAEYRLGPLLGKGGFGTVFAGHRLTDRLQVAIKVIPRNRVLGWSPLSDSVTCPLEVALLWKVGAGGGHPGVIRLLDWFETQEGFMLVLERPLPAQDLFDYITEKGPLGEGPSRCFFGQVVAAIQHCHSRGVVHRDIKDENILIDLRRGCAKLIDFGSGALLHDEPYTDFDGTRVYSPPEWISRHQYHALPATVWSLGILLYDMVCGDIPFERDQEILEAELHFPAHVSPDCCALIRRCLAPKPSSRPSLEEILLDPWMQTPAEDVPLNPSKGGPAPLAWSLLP

Compound: O=C(O)/C=C/c1cccc(-c2cncc(N[C@H]3CC[C@H](O)CC3)n2)c1 [compound 3, (E)-3-{3-[6-(4-Hydroxy-cyclohexylamino)-pyrazin-2-yl]-phenyl}-acrylic acid]
- IC50: 265 nM

Compound: O=C(O)/C=C/c1cccc(-c2cncc(NCC3CCNCC3)n2)c1 [compound 4, (E)-3-(3-{6-[(Piperidin-4-ylmethyl)-amino]-pyrazin-2-yl}-phenyl)-acrylic acid]
- IC50: 57 nM

Compound: NCCCCNc1cncc(-c2cccc(/C=C/C(=O)O)c2)n1 [compound 5, (E)-3-{3-[6-(4-Amino-butylamino)-pyrazin-2-yl]-phenyl}-acrylic acid]
- IC50: 22 nM

Compound: NCCCNc1cncc(-c2cccc(/C=C/C(=O)O)c2)n1 [compound 6, (E)-3-{3-[6-(3-Amino-propylamino)-pyrazin-2-yl]-phenyl}-acrylic acid]
- IC50: 27 nM

Compound: CC(C)(CN)CNc1cncc(-c2cccc(/C=C/C(=O)O)c2)n1 [compound 7, (E)-3-{3-[6-(3-Amino-2,2-dimethyl-propylamino)-pyrazin-2-yl]-phenyl}-acrylic acid]
- IC50: 27 nM

Compound: CN(C)CCCNc1cncc(-c2cccc(/C=C/C(=O)O)c2)n1 [compound 8, (E)-3-{3-[6-(3-Dimethylamino-propylamino)-pyrazin-2-yl]-phenyl}-acrylic acid]
- IC50: 94 nM

Compound: CN(C)CCNc1cncc(-c2cccc(/C=C/C(=O)O)c2)n1 [compound 9, (E)-3-{3-[6-(2-Dimethylamino-ethylamino)-pyrazin-2-yl]-phenyl}-acrylic acid]
- IC50: 99 nM

Compound: CNCCCN(C)c1cncc(-c2cccc(/C=C/C(=O)O)c2)n1 [compound 10, (E)-3-(3-{6-[Methyl-(3-methylamino-propyl)-amino]-pyrazin-2-yl}-phenyl)-acrylic acid]
- IC50: 110 nM

Compound: CCNCCCNc1cncc(-c2cccc(/C=C/C(=O)O)c2)n1 [compound 11, (E)-3-{3-[6-(3-Ethylamino-propylamino)-pyrazin-2-yl]-phenyl}-acrylic acid]
- IC50: 120 nM

Compound: NCCNc1cncc(-c2cccc(/C=C/C(=O)O)c2)n1 [compound 12, (E)-3-{3-[6-(2-Amino-ethylamino)-pyrazin-2-yl]-phenyl}-acrylic acid]
- IC50: 140 nM

Compound: CNCCN(C)c1cncc(-c2cccc(/C=C/C(=O)O)c2)n1 [compound 13, (E)-3-(3-{6-[Methyl-(2-methylamino-ethyl)-amino]-pyrazin-2-yl}-phenyl)-acrylic acid]
- IC50: 240 nM

Compound: CN(C)CCCN(C)c1cncc(-c2cccc(/C=C/C(=O)O)c2)n1 [compound 14, (E)-3-(3-{6-[(3-Dimethylamino-propyl)-methyl-amino]-pyrazin-2-yl}-phenyl)-acrylic acid]
- IC50: 370 nM

Compound: NC(=O)CNc1cncc(-c2cccc(/C=C/C(=O)O)c2)n1 [compound 15, (E)-3-{3-[6-(Carbamoylmethyl-amino)-pyrazin-2-yl]-phenyl}-acrylic acid]
- IC50: 84 nM

Compound: NC(=O)CCNc1cncc(-c2cccc(/C=C/C(=O)O)c2)n1 [compound 16, (E)-3-{3-[6-(2-Carbamoyl-ethylamino)-pyrazin-2-yl]-phenyl}-acrylic acid]
- IC50: 250 nM

Compound: O=C(O)/C=C/c1cccc(-c2cncc(NCCO)n2)c1 [compound 17, (E)-3-{3-[6-(2-Hydroxy-ethylamino)-pyrazin-2-yl]-phenyl}-acrylic acid]
- IC50: 300 nM

Compound: O=C(O)/C=C/c1cccc(-c2cncc(NCCCO)n2)c1 [compound 18, (E)-3-{3-[6-(3-Hydroxy-propylamino)-pyrazin-2-yl]-phenyl}-acrylic acid]
- IC50: 310 nM

Compound: COCCCNc1cncc(-c2cccc(/C=C/C(=O)O)c2)n1 [compound 19, (E)-3-{3-[6-(3-Methoxy-propylamino)-pyrazin-2-yl]-phenyl}-acrylic acid]
- IC50: 480 nM

Compound: COCCNc1cncc(-c2cccc(/C=C/C(=O)O)c2)n1 [compound 20, (E)-3-{3-[6-(2-Methoxy-ethylamino)-pyrazin-2-yl]-phenyl}-acrylic acid]
- IC50: 1200 nM
